EP4745134A1 (Jiangsu Yahong Meditech Co., Ltd., priority 2023, dated 2025)
Like-named read-outs stand apart in the source and are kept apart here.

Assays:
HCT116 MTAP KO cells = experiment: Inhibitory activity against cell proliferation (CellTiter Glo, 6 days), HCT116 MTAP KO; assay type: cell-based; conditions: for IC50: HCT116 MTAP KO cells, 6 days, CellTiter Glo, read-out: HCT116 MTAP KO IC50; for Selectivity HCT 116-WT/ HCT116 MTAP KO: ratio of IC50 HCT116-WT / HCT116 MTAP KO
Procedure: (§1) HCT116-WT (ATCC, CCL-247) and HCT116 MTAP KO (Nanjing Cobioer, CBP75002) cells were seeded into white low-transparency sterile 96-well cell culture plates at a density of 250 cells per well respectively, and the culture medium was McCoy's 5A Medium+10% FBS. The plates were placed under the condition of 37°C and 5% CO2 to be cultured overnight. The cells were treated with 4-fold serially diluted compounds of 8 concentration points starting at an initial concentration of 10000 nM, and the last two columns were used as control wells to which only DMSO was added. The drug-treated cells were further cultured for 6 days. On day 7, CellTiter Glo® reagent was added at 50 uL per well, and after reaction under shaking for 10 minutes at room temperature, the chemiluminescence signals were detected for the well plates through the chemiluminescence detection method using a BIOTEK H1 multifunctional microplate-reader. The IC50 values for inhibition of the compounds on cell viability were calculated in X1fit 5.0 software. Table 2. IC50 values for inhibition of the compounds on HCT116 MTAP KO/WT cell growth

HCT116-WT cells = experiment: Inhibitory activity against cell proliferation (CellTiter Glo, 6 days), HCT116-WT; assay type: cell-based; conditions: HCT116-WT cells, 6 days, CellTiter Glo, read-out: HCT116-WT IC50
Procedure: as §1

SMILES	IC50 (HCT116 MTAP KO cells; Homo sapiens, HCT-116, 144 h)	IC50 (HCT116-WT cells; 144 h)	IC50 (HCT116 MTAP KO cells)	IC50 (HCT116-WT cells)	Selectivity HCT 116-WT/ HCT116 MTAP KO (HCT116 MTAP KO cells)
Cc1cc2cc(C(=O)N(Cc3ccc(-c4cnn(C(C)(C)C)c4)cn3)N(C)c3ncccn3)ccc2nc1N [Example 205, 2-amino-N-((5-(1-(tert-butyl)-1H-pyrazol-4-yl)pyridin-2-yl)methyl)-N',3-dimethyl-N'-(pyrimidin-2-yl)quinoline-6-carbohydr azide]	0.058 µM	1.17 µM			20.14
CCn1cc(-c2ccc(CN(C(=O)c3ccc4nc(N)c(C)cc4c3)N(C)c3ncccn3)nc2)cn1 [Example 206, 2-amino-N-((5-(1-ethyl-1H-pyrazol-4-yl)pyridin-2-yl)methyl)-N',3-dimethyl-N'-(pyrimidin-2-yl)quinoline-6-carbohydrazide]	0.018 µM	0.921 µM			51.17
Cc1cc2cc(C(=O)N(Cc3ccc(-c4ccc(N5CCNCC5)nc4)cn3)N(C)c3ncccn3)ccc2nc1N [Example 207, 2-amino-N',3-dimethyl-N-((6'-(piperazin-1-yl)-[3,3'-bipyridine]-6-yl)methyl)-N'-(pyrimidin-2-yl)quinoline-6-carbohydrazide]	0.026 µM	0.488 µM			18.77
Cc1cc2cc(C(=O)N(Cc3ccc(-c4ccn(C)c(=O)c4)cn3)N(C)c3ncccn3)ccc2nc1N [Example 209, 2-amino-N',3-dimethyl-N-((1'-methyl-2'-oxo-1',2'-dihydro-[3,4'-bipyridine]-6-yl)methyl)-N'-(pyrimidin-2-yl)quinoline-6-car bohydrazide]	0.026 µM	0.716 µM			27.54
Cc1cc2cc(C(=O)N(Cc3ccc(-c4ccc(N(C)C)nc4)cn3)N(C)c3ncccn3)ccc2nc1N [Example 212, 2-amino-N-((6'-(dimethylamino)-[3,3'-bipyridine]-6-yl)methyl)-N',3-dimethyl-N'-(pyrimidin-2-yl)quinoline-6-carbohydrazide]	0.03 µM	0.646 µM			21.53
Cc1cc2cc(C(=O)N(Cc3ccc(-c4cnn(C(F)F)c4)cn3)N(C)c3ncccn3)ccc2nc1N [Example 213, 2-amino-N-((5-(1-(difluoromethyl)-1H-pyrazol-4-yl)pyridin-2-yl)methyl)-N',3-di methyl-N'-(pyrimidin-2-yl)quinoline-6-c arbohydrazide]			0.039 µM	0.863 µM	22.13
Cc1cc2cc(C(=O)N(Cc3ccc4sc(C5CCN(C)CC5)nc4c3)N(C)c3ncccn3)ccc2nc1N [Example 219]	0.216 µM	3.14 µM			14.53
Cc1cc2cc(C(=O)N(Cc3ccc(-c4ccc(N(C)CCO)nc4)cn3)N(C)c3ncccn3)ccc2nc1N [Example 246, 2-amino-N-((6'-((2-hydroxyethyl) (methyl)amino)-[3,3'-bipyridine]-6-yl)methyl)-N',3-dimethyl-N'-(pyrimidin-2-yl)quinoline-6-carbohydrazide]	0.018 µM	0.482 µM			26.78
CN(c1ncccn1)N(Cc1ccc(-c2cnn(C(F)(F)F)c2)cn1)C(=O)c1ccc2nc(N)c3cnn(C)c3c2c1 [Example 248, 4-amino-N',1-dimethyl-N'-(pyrimidin-2-yl)-N-((5-(1-(trifluoromethyl)-1H-pyrazol-4-yl)pyridin-2-yl)methyl)-1H-pyrazolo[4,3-c]quinoline-8-carbohydrazide]	0.0039 µM	0.063 µM			16.15
COCCN(C)c1ccc(-c2ccc(CN(C(=O)c3ccc4nc(N)c(C)cc4c3)N(C)c3ncccn3)nc2)cn1 [Example 254, 2-amino-N-((6'-((2-methoxyethyl)(methyl)amino)-[3,3'-bipyridine]-6-yl)methyl)-N',3-d imethyl-N'-(pyrimidin-2-yl)quinoline-6-carbohydrazide]	0.042 µM	0.503 µM			11.98
CCN(CC)c1ccc(-c2ccc(CN(C(=O)c3ccc4nc(N)c(C)cc4c3)N(C)c3ncccn3)nc2)cn1 [Example 255, 2-amino-N-((6'-(diethylamino)-[3,3'-bipyridin]-6-yl)methyl)-N',3-dimethyl-N'-(pyrimidin-2-yl)quinoline-6-carbohydrazide]	0.081 µM	0.978 µM			12.07
Cc1cc2cc(C(=O)N(Cc3ccc(-c4ccc(N5CCC5)nc4)cn3)N(C)c3ncccn3)ccc2nc1N [Example 256, 2-amino-N-((6'-(azetidin-1-yl)-[3,3'-bipyridin]-6-yl)methyl)-N',3-dimethyl-N'-(pyrimidin-2-yl)quinoline-6-carbohydrazide]	0.052 µM	0.875 µM			16.83

Continued, in another order:

IC50 (HCT116 MTAP KO cells; Homo sapiens, HCT-116, 144 h)	IC50 (HCT116-WT cells; 144 h)	IC50 (HCT116 MTAP KO cells)	IC50 (HCT116-WT cells)	SMILES	Selectivity HCT 116-WT/ HCT116 MTAP KO (HCT116 MTAP KO cells)
0.025 µM	0.492 µM			Cc1cc2cc(C(=O)N(Cc3ccc(-c4ccns4)cn3)N(C)c3ncccn3)ccc2nc1N [Example 210, 2-amino-N-((5-(isothiazol-5-yl)pyridin-2-yl)methyl)-N',3-dimethyl-N'-(pyrimidin-2-yl)quinoline-6-carbohydrazide]	19.68
0.029 µM	0.694 µM			Cc1cc2cc(C(=O)N(Cc3ccc(-c4cccs4)cn3)N(C)c3ncccn3)ccc2nc1N [Example 214, 2-amino-N',3-dimethyl-N'-(pyrimidin-2-yl)-N-((5-(thien-2-yl)pyridin-2-yl)methyl) quinoline-6-carbohydrazide]	23.93
0.14 µM	3.42 µM			Cc1csc(-c2ccc(CN(C(=O)c3ccc4nc(N)c(C)cc4c3)N(C)c3ncccn3)nc2)n1 [Example 227, 2-amino-N',3-dimethyl-N-((5-(4-methylthiazol-2-yl)pyridin-2-yl)methyl)-N'-(pyrimidin-2-yl)quinoline-6-carbohydrazide]	24.44
0.051 µM	1.32 µM			Cc1cc2cc(C(=O)N(Cc3ccc(-c4cnn(C)n4)cn3)N(C)c3ncccn3)ccc2nc1N [Example 228, 2-amino-N',3-dimethyl-N-((5-(2-methyl-2H-1,2,3-triazol-4-yl)pyridin-2-yl)methyl)-N'-(pyrimidin-2-yl)quinoline-6-carbohy drazide]	25.92
0.027 µM	0.279 µM			Cc1cc2cc(C(=O)N(Cc3ccc(-c4nc(C#N)cs4)cn3)N(C)c3ncccn3)ccc2nc1N [Example 230, 2-amino-N-((5-(4-cyanothiazol-2-yl)pyridin-2-yl)methyl)-N',3-dimethyl-N'-(pyrimidin-2-yl)quinoline-6-carbohydrazide]	10.33
0.212 µM	2.69 µM			Cc1cc2cc(C(=O)N(Cc3ccc(-c4nnn(C)n4)cn3)N(C)c3ncccn3)ccc2nc1N [Example 231, 2-amino-N',3-dimethyl-N-((5-(2-methyl-2H-tetrazol-5-yl)pyridin-2-yl)methyl)-N'-(pyrimidin-2-yl)quinoline-6-carbohydrazide]	12.71
0.02 µM	0.75 µM			Cc1cc2cc(C(=O)N(Cc3ccc(-c4nccs4)cn3)N(C)c3ncccn3)ccc2nc1N [Example 234, 2-amino-N',3-dimethyl-N'-(pyrimidin-2-yl)-N-((5-(thiazol-2-yl)pyridin-2-yl)methyl)quinoline-6-carbohydrazide]	37.50
